The values that follow come from patent US9512180B2, “Compstatin analogs” (THE REGENTS OF THE UNIVERSITY OF CALIFORNIA, priority 2012, dated 2016).

“Also recorded” adds a separate entry of the source. Bridge positions count the residues as written; N and C are the ends. Peptide text beside a SMILES is read from it.

One data set has as its system complement system. As to the kind of experiment: Preliminary ELISA-based complement system inhibition assays, human serum. Type of data set: biochemical. To be noted: preliminary data. From the text: For some of the peptides studied here, W1, W13, R1, and S-1S0, there is experimental evidence for inhibitory activity against hC3. […] The structural rationale was that the positively charged backbone amino group was disrupting the hydrophobic cluster at the termini (spanning residues 11-C2-V3-V4/C12/T13 of native compstatin), which was deemed necessary for binding and activity before the availability of the structure of the C3c-W4A9 complex, and that upon removal of the positive charge by acetylation the hydrophobic cluster was fortified and contributed to the 3-fold increase in activity. […] The peptide with the diserine extension is expected to be active, as the diserine was present at the N-terminus of the original 32-amino acid peptide that was identified in the phage-display and a subsequent study.
(In general: In an ELISA, binding on a coated surface is turned into a signal by an enzyme label.)

Data set [1] is described as follows: Aqueous solubility by concentration measurement (absorbance at 280 nm) of saturated peptide solutions. Type of data set: physicochemical. To be noted: saturated peptide solutions, absorbance at 280 nm; read-out: approximate aqueous solubility. How it is done:
The relative lipophilicities of Peptides I, III, VI, IX, and Parent are inversely consistent with solubilities as determined via concentration measurement (absorbance at 280 nm) of saturated peptide solutions, with Peptides I, III, and Parent having approximate aqueous solubilities of >1 mM, Peptide VI>500 μM, and Peptide IX<500 μM.

The nature of data set [2]: RP-HPLC relative lipophilicity (retention factor k, log k). Type of data set: physicochemical. The method, then:
The effect of the hydrophobic content of compstatin family peptides on relative lipophilicity was evaluated using RP-HPLC, a widely applied indirect technique for the determination of the lipophilicity of drugs and drug candidates. The determination of log P by RP-HPLC is based on the measurement of the retention factor k between the mobile and stationary phase (Eq. 7) of the investigated compound:
[formula] where tR is the retention time of the analyte, and to is the elution time of an unretained analyte. The logarithm of the retention factor is linearly correlated with the logarithm of the partition coefficient log P=a log k+b (8). where a and b are the slope and intercept of the linear equation.
The determination of log P values requires calibration using structurally related compounds, and is beyond the scope of this study. Instead the log k values were used to indicate the relative lipophilicities of this compstatin peptide family.
HPLC experiments were carried out using an Agilent 1100 HPLC with UV detection at 280 nm at 25° C. Separations were performed on a Waters (Milford, Mass.) 4.6×150 mm XTerra MS C18 column with 5 μm pore size using a mobile phase of A: 10 mM phosphate buffer pH=7.4 containing 1% TFA, and B: acetonitrile. The purity of the peptides was verified by an isocratic separation at 28% B and a flow rate of 1 mL/min. Solutions containing 0.6-0.8 mg/mL of Peptides I, III, VI, IX and the parent peptide were prepared in methanol and diluted 5-times with the eluent. All five peptides eluted as single peaks indicating a high degree of purity (FIG. 10).
For the determination of the relative lipophilicities a solution containing each of the peptides was prepared from the stock solutions and injected in triplicate. […] A 0.5 mg/mL solution of aspartic acid was used as the unretained analyte for the determination of the column dead time, 1.439±0.003 min.
RP-HPLC was used to measure the hydrophobicity/lipophilicity content of the compstatin family peptides. The retention of a compound in RP-HPLC depends on its hydrophobicity/lipophilicity content, and is correlated to the octanol-water partition ratio. Lipophilicity describes the partitioning of a compound between an aqueous and a lipidic/hydrophobic environment, and is an essential physicochemical parameter to determine pharmacokinetic behavior according to ADME (absorption, distribution, metabolism, excretion) characterization. Because the compstatin family peptides consist of a hydrophobic and a polar surface, their ability to bind to the hydrophobic cavity of C3, while maintaining a solvent-exposed face has been evaluated here as lipohilicity content, measured by RP-HPLC. In addition, lipohilicity is inversely proportional to aqueous solubility, and therefore can be used to estimate solubility of the peptides in their free (unbound) state.

A further data set deals with rC3 (Rattus norvegicus, UniProt P01026). The data set is described as follows: Experimental activity against rC3 (method not described).
For another data set, the target named is hC3 (Homo sapiens, UniProt P01024). The data set is described as follows: Activity measurements of inhibitory activity against hC3 (method not described). The note with it: relative to W4A9.
Data set [3] in a line: Experimental solubility of analogs (method not described). Type of data set: physicochemical. To be noted: aqueous environment.

Sequence of rC3 (P01026 25-1663): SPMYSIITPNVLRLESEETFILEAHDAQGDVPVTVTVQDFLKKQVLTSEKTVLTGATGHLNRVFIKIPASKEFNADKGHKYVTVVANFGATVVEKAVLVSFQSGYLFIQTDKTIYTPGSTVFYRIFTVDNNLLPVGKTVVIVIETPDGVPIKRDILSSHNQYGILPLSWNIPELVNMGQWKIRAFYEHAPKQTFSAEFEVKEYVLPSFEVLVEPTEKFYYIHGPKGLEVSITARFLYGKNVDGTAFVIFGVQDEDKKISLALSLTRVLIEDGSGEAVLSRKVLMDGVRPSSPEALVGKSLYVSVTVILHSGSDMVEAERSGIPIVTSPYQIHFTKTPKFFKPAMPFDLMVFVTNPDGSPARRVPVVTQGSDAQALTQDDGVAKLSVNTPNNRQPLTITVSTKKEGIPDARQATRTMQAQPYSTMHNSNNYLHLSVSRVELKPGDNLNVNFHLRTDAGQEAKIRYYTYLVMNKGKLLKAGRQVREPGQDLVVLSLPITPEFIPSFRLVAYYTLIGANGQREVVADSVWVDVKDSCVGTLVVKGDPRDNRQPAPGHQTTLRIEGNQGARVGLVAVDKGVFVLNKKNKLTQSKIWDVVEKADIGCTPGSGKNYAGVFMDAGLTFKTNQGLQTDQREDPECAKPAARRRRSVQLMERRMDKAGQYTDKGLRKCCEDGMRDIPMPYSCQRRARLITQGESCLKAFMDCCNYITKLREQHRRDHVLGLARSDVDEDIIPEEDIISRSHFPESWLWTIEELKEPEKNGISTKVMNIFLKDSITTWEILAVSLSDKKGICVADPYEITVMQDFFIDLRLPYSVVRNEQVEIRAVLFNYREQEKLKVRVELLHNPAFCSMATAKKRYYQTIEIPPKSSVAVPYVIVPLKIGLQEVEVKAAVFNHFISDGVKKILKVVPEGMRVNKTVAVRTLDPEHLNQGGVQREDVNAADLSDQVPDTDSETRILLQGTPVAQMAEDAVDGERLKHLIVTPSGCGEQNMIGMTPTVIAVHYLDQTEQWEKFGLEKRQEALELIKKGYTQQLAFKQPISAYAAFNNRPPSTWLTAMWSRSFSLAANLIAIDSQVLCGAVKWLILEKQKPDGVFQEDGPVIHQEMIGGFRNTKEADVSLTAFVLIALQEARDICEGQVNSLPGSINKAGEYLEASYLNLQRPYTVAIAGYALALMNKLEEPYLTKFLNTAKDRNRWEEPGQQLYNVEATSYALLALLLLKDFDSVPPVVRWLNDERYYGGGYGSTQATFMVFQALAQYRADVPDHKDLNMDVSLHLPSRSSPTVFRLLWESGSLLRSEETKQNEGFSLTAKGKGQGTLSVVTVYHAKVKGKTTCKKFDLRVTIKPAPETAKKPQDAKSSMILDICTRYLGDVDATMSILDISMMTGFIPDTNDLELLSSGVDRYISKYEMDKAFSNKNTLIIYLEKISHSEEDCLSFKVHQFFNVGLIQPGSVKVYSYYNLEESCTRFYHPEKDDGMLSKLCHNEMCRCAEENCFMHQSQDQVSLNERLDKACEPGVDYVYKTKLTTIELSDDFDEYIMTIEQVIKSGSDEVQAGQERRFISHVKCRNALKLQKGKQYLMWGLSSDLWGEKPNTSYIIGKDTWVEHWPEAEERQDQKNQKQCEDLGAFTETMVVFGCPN
Sequence of hC3 (P01024 23-1663): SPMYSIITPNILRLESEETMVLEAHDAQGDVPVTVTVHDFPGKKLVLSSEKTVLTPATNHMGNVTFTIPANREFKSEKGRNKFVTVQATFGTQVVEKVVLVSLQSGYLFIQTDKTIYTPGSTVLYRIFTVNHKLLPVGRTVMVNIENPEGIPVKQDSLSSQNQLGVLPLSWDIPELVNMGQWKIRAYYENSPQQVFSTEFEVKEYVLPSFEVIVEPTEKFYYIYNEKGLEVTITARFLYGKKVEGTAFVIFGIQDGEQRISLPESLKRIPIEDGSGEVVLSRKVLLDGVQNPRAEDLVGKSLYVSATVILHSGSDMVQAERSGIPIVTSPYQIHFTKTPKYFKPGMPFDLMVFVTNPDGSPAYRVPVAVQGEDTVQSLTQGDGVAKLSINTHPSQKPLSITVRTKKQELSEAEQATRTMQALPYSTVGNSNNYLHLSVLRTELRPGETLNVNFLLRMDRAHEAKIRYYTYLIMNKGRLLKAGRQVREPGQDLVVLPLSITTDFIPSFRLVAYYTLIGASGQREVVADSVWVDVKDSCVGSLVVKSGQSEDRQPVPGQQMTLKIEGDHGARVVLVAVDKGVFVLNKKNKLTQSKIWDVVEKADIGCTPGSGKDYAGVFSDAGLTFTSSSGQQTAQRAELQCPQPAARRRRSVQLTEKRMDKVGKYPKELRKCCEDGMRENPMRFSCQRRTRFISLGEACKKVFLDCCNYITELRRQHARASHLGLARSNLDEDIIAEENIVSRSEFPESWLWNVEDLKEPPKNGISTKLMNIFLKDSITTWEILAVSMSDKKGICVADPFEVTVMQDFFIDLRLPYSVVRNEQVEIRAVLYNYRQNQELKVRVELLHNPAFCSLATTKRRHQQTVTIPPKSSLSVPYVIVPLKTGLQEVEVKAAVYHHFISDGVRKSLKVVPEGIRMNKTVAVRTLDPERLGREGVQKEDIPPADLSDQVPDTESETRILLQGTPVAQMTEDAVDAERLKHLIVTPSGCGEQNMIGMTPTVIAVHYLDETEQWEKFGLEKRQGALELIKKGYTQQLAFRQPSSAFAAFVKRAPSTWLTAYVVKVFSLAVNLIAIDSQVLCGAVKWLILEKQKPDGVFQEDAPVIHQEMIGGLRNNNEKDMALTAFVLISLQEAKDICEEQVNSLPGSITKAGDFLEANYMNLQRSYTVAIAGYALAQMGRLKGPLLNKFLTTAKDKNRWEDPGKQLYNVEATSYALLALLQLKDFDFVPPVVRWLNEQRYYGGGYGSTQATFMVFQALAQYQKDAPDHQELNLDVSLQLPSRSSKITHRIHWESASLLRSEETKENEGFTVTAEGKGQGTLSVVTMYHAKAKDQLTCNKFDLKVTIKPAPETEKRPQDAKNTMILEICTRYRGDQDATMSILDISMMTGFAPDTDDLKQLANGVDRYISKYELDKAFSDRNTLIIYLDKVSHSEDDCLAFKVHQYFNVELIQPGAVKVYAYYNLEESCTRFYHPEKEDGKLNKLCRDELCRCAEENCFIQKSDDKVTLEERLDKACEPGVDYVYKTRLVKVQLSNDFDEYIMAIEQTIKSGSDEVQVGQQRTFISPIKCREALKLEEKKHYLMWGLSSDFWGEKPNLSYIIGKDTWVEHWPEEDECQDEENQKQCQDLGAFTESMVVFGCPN

For the compound `CC[C@H](C)[C@H](NC(=O)[C@H](CO)NC(=O)[C@H](CO)NC(C)=O)C(=O)N[C@H]1CSSC[C@@H](C(=O)N[C@H](C(N)=O)[C@@H](C)O)NC(=O)[C@H](CCCNC(=N)N)NC(=O)[C@H](Cc2c[nH]cn2)NC(=O)[C@H](C)NC(=O)CNC(=O)[C@H](Cc2c[nH]c3ccccc23)NC(=O)[C@H](CC(=O)O)NC(=O)[C@H](CCC(N)=O)NC(=O)[C@H](Cc2c[nH]c3ccccc23)NC(=O)[C@H](C(C)C)NC1=O` [Peptide IV, Ac-SS-ICV WQDWGA HRCT-NH2], the “inhibitory activity in human serum (in words)” value in the data set on complement system is “higher than those of native compstatin and slightly lower than those of the W4A9 analog”.
Regarding `CC[C@H](C)[C@H](NC(C)=O)C(=O)N[C@H]1CSSC[C@@H](C(=O)N[C@H](C(N)=O)[C@@H](C)O)NC(=O)[C@H](CCCNC(=N)N)NC(=O)[C@H](Cc2c[nH]cn2)NC(=O)[C@H](C)NC(=O)CNC(=O)[C@H](Cc2c[nH]c3ccccc23)NC(=O)[C@H](CC(=O)O)NC(=O)[C@H](CCC(N)=O)NC(=O)[C@H](Cc2c[nH]c3ccccc23)NC(=O)[C@H](C(C)C)NC1=O` [Peptide IX, Ac- ICV WQDWGA HRCT-NH2, reference compound], the solubility in data set [1] was under 500 µM. For the same compound, in data set [2], the “Retention factor (k)” value turned out to be 11.429 and the logk is listed as 1.058. In addition, on rC3, the “activity against rC3 (in words)” value is “inactive”.
With `CC[C@H](C)[C@H](NC(C)=O)C(=O)N[C@H]1CSSC[C@@H](C(=O)N[C@@H](Cc2c[nH]c3ccccc23)C(N)=O)NC(=O)[C@H](CCCNC(=N)N)NC(=O)[C@H](Cc2c[nH]cn2)NC(=O)[C@H](C)NC(=O)CNC(=O)[C@H](Cc2c[nH]c3ccccc23)NC(=O)[C@H](CC(=O)O)NC(=O)[C@H](CCC(N)=O)NC(=O)[C@H](Cc2c[nH]c3ccccc23)NC(=O)[C@H](C(C)C)NC1=O` [Peptide W13] (Ac-ICVWQDWGAHRCW-NH2; disulfide 2-12), at hC3, the “inhibitory activity against hC3 (in words)” value is on record as “slightly reduced activities”. For the same compound, in data set [3], the “solubility (in words)” value is “slightly reduced activities and solubilities; also recorded: solubility problems in aqueous environment”.

What is called solubility is how much of the substance goes into solution per volume.
